Test results as given in US20240180149A1, “FIRE ANT BAITS WITH ENHANCED SELECTIVITY” (The United States of America, as represented by the …, priority 2022, published 2024).
“Also recorded” adds a separate entry of the source.

How the values were obtained:
[1] = test system: little black ants; assay: Two-choice field feeding bioassay on little black ants (soybean oil); assay type: in vivo, Monomorium minimum
Description: (§1) Ant feeding bioassays—Multiple-choice and a paired two-choice bioassays were used in this study. An exemplary schematic of the multichoice bioassay field feeding setup is shown in FIG. 1A, and an exemplary schematic of the two-choice bioassay field feeding setup is shown in FIG. 1B. Soybean oil was used as a food source for all the bioassays (Great Value, purchased from Walmart in Greenville Mississippi, USA). The feeding apparatus was a filtered 1-ml pipette tip with the part 0.5 cm below the filter removed. In multiple-choice bioassays, five concentrations of the test compounds were tested with untreated soybean oil as a control, and in two-choice bioassays, the compound at certain concentration was tested against the control oil. Eighty microliter soybean oil was loaded onto each filter. After being weighed, the apparatuses with oil were placed in the field for about 2 hours. The apparatuses were then collected and frozen under −40° C. to kill all ants. The apparatuses were weighed again after all ants were removed from the apparatuses. The difference in the weight of apparatuses before and after the feeding bioassays was the oil consumption. Feeding sites were at least 10 m away from each other for fire ants, and 3 m away for little black ants and for thief ants. The difference in oil consumption among/between treatment and control apparatuses was used to evaluate the effect of tested compound on the feeding of fire ants. For multiple-choice bioassays, a one-way ANOVA was performed to compare the effect of different concentrations of tested compound on the percentage of oil consumption. Tukey's HSD test was used for multiple comparisons. A paired t test was used in statistical analysis for the two-choice bioassays.
(§2) Two choice bioassays—Two-choice bioassays were conducted at six concentrations of trans-solenopsis A in soybean oil, including 6.6, 3.3, 1.7, 0.8, 0.4, and 0.2 mg/g for fire ants and little black ants, and four concentrations for thief ants including 6.6, 3.3, 1.7, and 0.8 mg/g. Feeding sites were selected using blank bait (untreated soybean oil in the feeding apparatuses). Blank baits were placed at the flagged sites for 30 minutes before the bioassay, and active feeding sites then used for the bioassays. Bioassays on fire ants were conducted in open area where most baits were hit by fire ants. Bioassays on little black ants and thief ants were conducted under the bushes, since baits under the bushes had more chances to be hit by little black ants or thief ants.

[2] = test system: fire ants; assay: Multiple-choice field feeding bioassay on fire ants (soybean oil); assay type: in vivo, Solenopsis invicta; conditions: ten concentrations 0.015-6.6 mg/g in soybean oil, two sets (P=0.076; P=0.703), one-way ANOVA
Description: as §1, with “The difference in oil consumption among/between treatment and control apparatuses was used to evaluate the effect of tested compound on the feeding of fire ants. For multiple-choice bioassays, a one-way ANOVA was performed to compare the effect of different concentrations of tested compound on the percentage of oil consumption. Tukey's HSD test was used for multiple comparisons. A paired t test was used in statistical analysis for the two-choice bioassays.” left out

[3] = test system: fire ants; assay: Two-choice field feeding bioassay on fire ants (soybean oil); assay type: in vivo, Solenopsis invicta; conditions: two-choice vs control oil
Description: as §1
Two choice bioassays—Two-choice bioassays were conducted at six concentrations of trans-solenopsis A in soybean oil, including 6.6, 3.3, 1.7, 0.8, 0.4, and 0.2 mg/g for fire ants and little black ants, and four concentrations for thief ants including 6.6, 3.3, 1.7, and 0.8 mg/g. […]

[4] = test system: thief ants; assay: Two-choice field feeding bioassay on thief ants (soybean oil); assay type: in vivo, Solenopsis molesta
Description: as §1, §2

[5] = two-choice vs control oil, 1.66 mg/g
[6] = two-choice vs control oil, 1.66 mg/g, listed as Trans-solenopsisn A
[7] = two-choice vs control oil, 3.3 mg/g
[8] = two-choice vs control oil, 3.3 mg/g, listed as Trans-solenopsisn A
[9] = two-choice vs control oil, 6.6 mg/g
[10] = two-choice vs control oil, 6.6 mg/g, listed as Trans-solenopsisn A

For `CCCCCCCCCCC[C@@H]1CCC[C@@H](C)N1` (relative stereo) [trans-solenopsin A], the “inhibition of feeding by little black ants on soybean oil” value ([1]; two-choice vs control oil, 0.42 mg/g, P=0.07) was “very close to be statistically significant”, the “feeding by little black ants on soybean oil” value ([1]; two-choice vs control oil, 0.83 mg/g) was “significantly inhibited the feeding” and the “feeding by little black ants on soybean oil” value ([1]; two-choice vs control oil, 0.83 mg/g, listed as Trans-solenopsisn A) was “significantly inhibited feeding”. The “feeding by little black ants on soybean oil” value [1, 5] was “significantly inhibited the feeding”, the “feeding by little black ants on soybean oil” value [1, 6] was “significantly inhibited feeding” and the “feeding by little black ants on soybean oil” value [1, 7] was “significantly inhibited the feeding”. The “feeding by little black ants on soybean oil” value [1, 8] was “significantly inhibited feeding”, the “feeding by little black ants on soybean oil” value [1, 9] was “almost completely shut down; also recorded: significantly inhibited the feeding” and the “feeding by little black ants on soybean oil” value [1, 10] was “significantly inhibited feeding; also recorded: almost completely inhibited”. For the same compound, the “concentrations that significantly inhibited feeding by little black ants” value ([1]; two-choice, paired t test, P<=0.045) was over 0.42 mg/g, the “share of oil consumed by little black ants that was trans-solenopsin A treated” value ([1]; two-choice, 3.3 mg/g) was 9.63% and the “effect on oil consumption by fire ants” value [2] was “no significant effect on oil consumption”. The “feeding preference of fire ants for soybean oil” value (shortened to “feeding preference of fire ants”) ([3]; 0.27 mg/g (270 ppm), P=0.049) was “fed preferentially on oil treated with trans-solenopsin A; also recorded: feed preferentially on soybean oil containing trans-solenopsin A”, the “feeding preference of fire ants” value ([3]; 0.42 mg/g (420 ppm), P=0.0585) was “fed preferentially on oil treated with trans-solenopsin A; also recorded: feed preferentially on soybean oil containing trans-solenopsin A” and the “feeding preference of fire ants” value ([3]; 6.6 mg/g (6600 ppm), P=0.39) was “did not significantly affect the feeding preference”. The “inhibition of feeding by thief ants on soybean oil” value ([4]; two-choice vs control oil, 0.80 mg/g, P=0.14) was “not statistically significant”, the “feeding by thief ants on soybean oil” value [4, 5] was “significantly inhibited the feeding” and the “feeding by thief ants on soybean oil” value [4, 6] was “feeding inhibition was significant”. For the same compound, the “feeding by thief ants on soybean oil” value [4, 7] was “significantly inhibited the feeding”, the “feeding by thief ants on soybean oil” value [4, 8] was “feeding inhibition was significant” and the “feeding by thief ants on soybean oil” value [4, 9] was “almost completely stopped; also recorded: completely shut down; also recorded: significantly inhibited the feeding”. The “feeding by thief ants on soybean oil” value [4, 10] was “feeding inhibition was significant; also recorded: almost completely inhibited” and the “share of oil consumed by thief ants that was trans-solenopsin A-treated” value ([4]; two-choice, concentration not restated (previous sentence: 3.3 mg/g)) was 1.52%.
